Target: T1, Dihydroorotate dehydrogenase (quinone), mitochondrial (Plasmodium falciparum (isolate 3D7), UniProt Q08210)
T1 sequence (Q08210 whole entry): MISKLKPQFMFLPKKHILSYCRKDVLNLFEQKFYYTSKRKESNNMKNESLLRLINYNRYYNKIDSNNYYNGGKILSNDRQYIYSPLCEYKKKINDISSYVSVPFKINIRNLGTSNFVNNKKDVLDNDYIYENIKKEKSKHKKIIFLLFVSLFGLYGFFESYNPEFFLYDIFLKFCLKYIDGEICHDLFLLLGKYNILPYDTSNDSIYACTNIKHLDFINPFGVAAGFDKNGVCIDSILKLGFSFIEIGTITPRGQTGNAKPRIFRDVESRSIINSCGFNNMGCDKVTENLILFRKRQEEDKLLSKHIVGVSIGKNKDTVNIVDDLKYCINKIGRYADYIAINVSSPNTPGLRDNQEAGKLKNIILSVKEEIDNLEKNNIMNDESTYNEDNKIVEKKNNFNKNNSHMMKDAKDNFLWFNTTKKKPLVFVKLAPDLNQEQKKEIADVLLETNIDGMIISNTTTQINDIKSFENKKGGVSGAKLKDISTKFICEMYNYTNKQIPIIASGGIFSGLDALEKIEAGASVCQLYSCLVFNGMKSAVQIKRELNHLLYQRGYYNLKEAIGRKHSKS
Test: DHODH Inhibition Assay
Settings: pH 8; 25 °C
Experimental: The assays were carried out by using a colorimetric DCIP method, which uses the colorimetric reagent 2, 6-dichlorophenolindophenol as the final electron acceptor. DCIP reduction is stoichiometrically equivalent to oxidation of dihydroorotate. Changes in absorbance were quantified in triplicate on a plate reader and data were analyzed to measure the reduction of DCIP as a decrease in absorbance at 600 nm. The data were then processed with Graphpad Prism to determine the IC50 and the apparent enzyme inhibition constant (Ki) for each inhibitor. Ki values were calculated using the Cheng-Prusoff equation with the Km for CoQD of 13 uM and 15 uM for PfDHODH and HsDHODH respectively.

| IC50 | Compound |
| --- | --- |
| > 200 µM | O=C(Nc1ccccc1C(=O)O)c1ccc2ccccc2c1 [2-(naphthalene-2-amido)benzoic acid] |
| > 200 µM | CN(C(=O)c1ccc2ccccc2c1)c1ccccc1C(=O)O [2-[methyl(naphthalene-2-)amido]benzoic acid] |
